Results reported in ChEMBL document CHEMBL1128691, “Functionally selective M1 muscarinic agonists. 3. Side chains and azacycles contributing to functional muscarinic selectivity among pyrazinylazacycles” (J Med Chem, 1995).

Tests used:
A9 = assay: Stimulating PI (phosphoinositol) hydrolysis in A9L-m1 cells.; type: functional, Mus musculus
Mus musculus [1] = assay: Effect on salivation in mice, after intraperitoneal administration of 10 mg/kg, activity expressed as a score using a scale of 0-2.; type: functional
[2] = biological target: T1, Muscarinic acetylcholine receptor M1 (Rattus norvegicus, UniProt P08482); assay: Binding activity against muscarinic acetylcholine receptor M1 in rat brain, using [3H]OXO-M as the radioligand.; type: tissue-based
T1 sequence (P08482 whole entry): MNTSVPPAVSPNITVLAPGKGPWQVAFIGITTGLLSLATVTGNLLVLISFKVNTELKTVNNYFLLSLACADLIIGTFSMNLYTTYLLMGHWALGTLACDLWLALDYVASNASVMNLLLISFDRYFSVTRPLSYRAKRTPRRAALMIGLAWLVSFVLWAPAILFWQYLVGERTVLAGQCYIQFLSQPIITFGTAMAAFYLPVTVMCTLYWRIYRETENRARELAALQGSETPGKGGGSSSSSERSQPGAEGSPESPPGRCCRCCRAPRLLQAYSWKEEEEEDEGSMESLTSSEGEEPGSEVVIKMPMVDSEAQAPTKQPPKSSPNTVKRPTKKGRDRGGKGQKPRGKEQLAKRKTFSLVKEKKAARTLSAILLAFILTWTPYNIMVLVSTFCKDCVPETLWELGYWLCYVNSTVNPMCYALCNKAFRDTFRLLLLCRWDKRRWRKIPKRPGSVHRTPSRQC

[3] = biological target: T1, Muscarinic acetylcholine receptor M1; assay: Binding activity against muscarinic acetylcholine receptor M1 in rat brain, using [3H]-Pz as the radioligand.; type: tissue-based
Mus musculus [4] = assay: Minimum effective dose after ip administration, to stimulate salivation in mice; type: functional; details: read-out: MED

Row | Structure (SMILES) | Max (A9) [%] | Score (Mus musculus [1]) | IC50 [2] [nM] | IC50 [3] [nM] | minimal effective dose (Mus musculus [4]) [mg/kg]
1 | CCCCCCOc1nccnc1C1=CCCCNC1 | 5 | 0 | 167 | 44 | 
2 | CCCCCCOc1nccnc1[C@H]1CN2CCC1C2 (stereo not given in full) | 40 | 1.6 | 5.6 | 7 | 1
3 | CCCCCCOc1nccnc1C1CN2CCC1CC2 (stereo not given) | 40 | 0 | 4.5 | 6 | 
4 | CCCCCCOc1nccnc1[C@H]1CN2CCC1CC2 | 46 | 0 | 11.3 | 10.6 | 
5 | c1cnc(C2CN3CCC2CC3)cn1 (stereo not given) | 80 | 1.4 | 4 | 74 | 0.1
6 | CCCCOc1nccnc1C1CN2CCC1CC2 (stereo not given) | 15 | 0 | 5 | 10 | 
7 | CCCCCCOc1nccnc1C1=CCCCN(C)C1 | 2 | 0 | 117 | 26 | 
8 | CCCCCCCOc1nccnc1C1CN2CCC1CC2 (stereo not given) | 35 | 0 | 10 | 13 | 
9 | CCCCCCOc1nsnc1C1=CCCN(C)C1 [XANOMELINE] | 55 | 0 |  |  | 
10 | CCOc1nccnc1C1CN2CCC1CC2 (stereo not given) | 1 | 0 | 23 | 38 | 
11 | CCCCCSc1nccnc1C1CN2CCC1CC2 (stereo not given) | 7 | 0 | 0.7 | 1.1 | 
12 | CCCCCCOc1nccnc1[C@H]1CN2CCCC1C2 (stereo not given in full) | 12 | 0 | 4 | 2.5 | 
13 | CCCCCCOc1nccnc1[C@@H]1CN2CCCC1C2 (stereo not given in full) | 4 | 0 | 180 | 120 | 
14 | Clc1nccnc1C1CN2CCC1CC2 (stereo not given) | 13 | 1.2 | 56 | 180 | 10
15 | CCCCCCOc1nccnc1[C@@H]1CN2CCC1CC2 | 33 | 0 | 2.5 | 3.7 | 
16 | Cc1nccnc1C1CN2CCC1CC2 (stereo not given) | 4 | 2 | 23 | 80 | 3
17 | COc1nccnc1C1CN2CCC1CC2 (stereo not given) | 1 | 0 | 72 | 111 | 
18 | CCCCCCOc1nccnc1C1=CCCN(C)C1 | 12 | 0 |  |  | 
19 | COC(=O)C1=CCCN(C)C1 [ARECOLINE] | 73 | 0 |  |  | 
20 | CCCCSc1nccnc1C1CN2CCC1CC2 (stereo not given) | 5 | 0 | 0.5 | 0.4 | 
21 | CCCOc1nccnc1C1CN2CCC1CC2 (stereo not given) | 4 | 0 | 9 | 19 | 
22 | CCCCCCOc1nccnc1[C@@H]1CN2CCC1C2 (stereo not given in full) | 31 | 0.6 | 46 | 58 | 
23 | Clc1cncc(C2CN3CCC2CC3)n1 (stereo not given) | 8 | 1 | 4.6 | 4.7 | 3
24 | C[N+](C)(C)CC#CCOC(=O)Nc1cccc(Cl)c1.[Cl-] | 52 |  |  |  | 
25 | CCCCCCSc1nccnc1C1CN2CCC1CC2 (stereo not given) | 16 | 0 | 2 | 2.2 | 
26 | CCCCCOc1nccnc1C1CN2CCC1CC2 (stereo not given) | 32 | 0.2 | 6 | 7 | 
